Measurements taken from patent US20240115558A1.
Entries after “also recorded” stand apart in the source; their conditions may differ. Where a name gives a salt, the structure may show the parent alone.

Legend:
[1] = tested on: patients with Niemann-Pick disease, type C (NPC); assay: Phase 2/3 NPC trial: safety evaluation
Experimental: Study Procedures: the screening visit (visit 1) included a baseline assessment, randomization assignment, and pharmacokinetic (PK) assessment. The first dose of arimoclomol or placebo was given within 1 week of randomization. Safety assessments were performed at visit 2 (7-14 days after start of treatment) and then every 3 months during the blinded period (visits 3-6).

[2] = tested on: patients with Niemann-Pick disease, type C (NPC); assay: 12-month randomized, double-blind, placebo-controlled phase 2/3 trial of arimoclomol in NPC: clinical efficacy endpoints; type: in vivo, human; design: key to Change from baseline in 5-domain NPCCSS score, treatment difference / Change in 5-domain NPCCSS score from baseline at 12 months, mean change / Change in 5-domain NPCCSS score, mean change / Change from baseline in 5-domain NPCCSS score, LSMean: 5-domain NPCCSS points (total 0–25, higher = more severe impairment); conditions: for Change from baseline in 5-domain NPCCSS score, LSMean / Change from baseline in 5-domain NPCCSS score, treatment difference: patients with ER genotype; for Change in 5-domain NPCCSS score, mean change: 12 months
Experimental: Patients enrolled in the trial were stratified by use of miglustat at baseline. Patients in both strata were randomized 2:1 to receive arimoclomol or placebo.
Routine clinical care was maintained throughout the trial (including administration of miglustat). Each participant was randomized to receive arimoclomol or placebo three times daily. Arimoclomol (calculated as free base) was administered orally or by feeding tube at 93-372 mg/day based on the patient's body weight up to the estimated equivalence of 372 mg/day for adults (body weight>55 kg) or of 124 mg three times a day.
During the 12-month treatment phase, efficacy assessments for the primary endpoint, the 5-domain NPCCSS score, and for the non-disease specific Clinical Global Impression-Improvement scale (CGI-I) scores were performed at baseline and after 3, 6, 9, and 12 months of treatment; all other efficacy and biomarker assessments were performed at baseline and after 6 and 12 months of treatment.
Primary endpoint: The primary endpoint was change from baseline in NPC severity at 12 months as assessed by the 5-domain NPCCSS score, an abbreviated assessment tool originating from the 17 domain NPCCSS score developed by Yanjanin et al., as described herein. The fully validated 5-domain NPCCSS score comprises the domains determined to be most clinically relevant to patients, caregivers, and clinicians: ambulation, cognition, fine motor skills, speech, and swallowing. The total aggregated 5-domain NPCCSS score ranges from 0 to 25, with a higher score indicating more severe clinical impairment.
Subgroup analyses of primary endpoint: NPC is a heterogeneous disease, and patients aged 2 to 18 years present with a large spectrum of disease presentations. The group of children<4 years old includes patients with mild manifestations and patients with aggressive, early fatal disease. As this group is particularly heterogeneous, a subgroup of patients ≥4 years of age was predefined with the population of study participants.
In the EU, miglustat is indicated for the treatment of progressive neurological manifestations in patients with NPC. However, not all patients are candidates for miglustat treatment, and it is recommended that the benefit of treatment should be evaluated on a regular basis (e.g., every six months). An analysis of the subpopulation of patients receiving miglustat was prespecified to elucidate the effect of arimoclomol in patients on background miglustat treatment. Overall, the subgroups of patients ≥4 years of age, and patients on miglustat treatment, were expected to be more homogeneous with respect to baseline demographics and disease characteristics and therefore more suitable for comparison.
In the first post hoc analysis, subjects with double functional null mutations in NPC1 (NPC1 genotype of Functional Null/Functional Null) were excluded.
In the second post hoc analysis, only subjects with annual severity increment score (ASIS) 0.5-2.0 were included.
In an additional post hoc analysis, only subjects with at least one ER type mutation were included.

[3] = tested on: HSPA1A, the gene encoding HSP70; assay: HSPA1A expression in NPC patient fibroblasts treated with arimoclomol; type: cell-based, human; conditions: NPC patient fibroblasts I1061T/I1061T; various concentrations; days 2 and 5
Experimental: The expression level of HSP1A1 is quantified on days 2 and day 5. The data are further described in Example 2.
(§1) Fibroblasts were seeded one day prior to treatment (day −1) with either 400 μM arimoclomol or PBS (control). Cells were treated continuously with arimoclomol from day 0 to day 5, with a media change on day 3, and harvested on day 5. The cells thus experienced 5 days of continued arimoclomol treatment. Cells were subsequently lysed with RIPA buffer containing protease and phosphatase inhibitors. Protein concentration for each sample was quantified with a BCA assay kit.

[4] = evidenced by presence in cerebrospinal fluid of treated ALS patients; cited from earlier work
[5] = tested on: NPC1 protein in GM18420 (P1007A/IVS23+4delA); assay: EndoH-resistant NPC1 by western blot, GM18420 fibroblasts; type: cell-based, human; conditions: 400 μM, 5 days
Experimental: (§2) PNGase cleaves all glycans from the NPC1 protein regardless of maturation status and is included as a control. EndoH sensitive, immature NPC1 is seen in untreated GM18453 extracts. (B) Quantification of the EndoH resistant NPC1, shown as arimoclomol treated relative to untreated cells. Cells were treated for 5 days with 400 μM arimoclomol. Average of three independent experiments, mean±SD. Pairwise t-test (p: *<0.05). The data are further described in Example 2. […]
(§3) Fibroblasts were seeded one day prior to treatment (day −1) with either 400 μM arimoclomol or PBS (control). […] Protein concentration for each sample was quantified with a BCA assay kit. […]
(§4) Proteins were resolved by SDS-PAGE and detected with Western blot (NPC1&tubulin).
(§5) For the quantification of mature and immature forms of NPC1 as shown in FIGS. 5A-B, membranes were imaged and protein bands for the immature (EndoH sensitive) and mature (EndoH resistant) forms of NPC1 (180-250 kDa) and tubulin (50 kDa) were quantified using ImageJ software. […] The fold change of EndoH-resistant NPC1 protein after arimoclomol treatment relative to PBS-treated (untreated) control within each cell line was quantified. […]

NPC1 protein = assay: Total NPC1 protein by western blot in NPC patient fibroblast cell lines; type: cell-based, human; conditions: patient fibroblasts with the most common NPC1 mutations; 50-400 μM, five days
Experimental: The data are further described in Example 2.
as §1

[6] = tested on: NPC1 protein in GM18453 (I1061T/I1061T); assay: EndoH-resistant NPC1 by western blot, GM18453 fibroblasts; type: cell-based, human; conditions: 400 μM, 5 days
Experimental: as §2, §3, §4, §5

Q: For `[O-][n+]1cccc(/C(Cl)=N/OC[C@H](O)CN2CCCCC2)c1` [Arimoclomol, (+)-(R)-N-[2-hydroxy-3-(1-piperidinyl)-propoxy]-pyridine-1-oxide-3-carboximidoyl chloride citrate], which Tolerability ([1]; 12-month trial) is on record?
A: Its Tolerability is “well tolerated”.

Q: What about the “Patients with increase in serum creatinine level over 1.5 times their baseline values” ([1]; arimoclomol group) of the same compound?
A: The value was “Six”.

Q: And the “Patients with serum creatinine levels over twice baseline values” ([1]; arimoclomol group)?
A: The value was “two”.

Q: And the “Patients with TEAEs” value ([1]; arimoclomol group, 30/34)?
A: Its value is 88.2%.

Q: And the “Changes in vital signs, electrocardiograms, or other laboratory values during the trial” value ([1]; in vivo)?
A: The value was “no significant changes”.

Q: What about the “TEAEs occurring more frequently with arimoclomol versus placebo” value ([1]; in vivo) of the same compound?
A: The value was “Upper respiratory tract infection and decreased weight”.

Q: What about the “Patients with TEAEs that led to trial drug discontinuation” value ([1]; three patients, four TEAEs (urticaria, angioedema, increased blood creatinine)) of the same compound?
A: Its value is 8.8%.

Q: What about the “SARA score change from baseline to 12 months, LS mean” value ([2]; human, in vivo) of the same compound?
A: Its value is 1.06.

Q: And the “SARA score change from baseline to 12 months, arimoclomol vs placebo: difference” value ([2]; human, in vivo)?
A: Its value is 0.28.

Q: What about the “Change in 5-domain NPCCSS score from baseline at 12 months, mean change” value ([2]; overall population, arimoclomol 93-372 mg/day (free base) t.i.d.) of the same compound?
A: Its value is 0.80.

Q: What about the “Change from baseline in 5-domain NPCCSS score, LSMean” value (shortened to “Change from baseline … LSMean”) ([2]; month 3) of the same compound?
A: The value was −0.29.

Q: What about the “Change from baseline in 5-domain NPCCSS score, treatment difference” value (from here on “Change from baseline … treatment difference”) ([2]; month 3) of the same compound?
A: The value was −1.60.

Q: What about the “Change from baseline … LSMean” value ([2]; month 6) of the same compound?
A: The value was 0.61.

Q: What about the “Change from baseline … treatment difference” value ([2]; month 6) of the same compound?
A: The value was −2.19.

Q: What about the “Change from baseline … LSMean” value ([2]; month 9) of the same compound?
A: The value was 0.86.

Q: What about the “Change from baseline … treatment difference” value ([2]; month 9) of the same compound?
A: The value was −3.44.

Q: And the “Change from baseline … LSMean” value ([2]; month 12)?
A: The value was 0.52.

Q: What about the “Change from baseline … treatment difference” value ([2]; month 12) of the same compound?
A: The value was −4.79.

Q: And the “Change in 5-domain NPCCSS score, mean change” value ([2]; post hoc: ASIS within 0.5 and 2)?
A: Its value is 0.19.

Q: And the “Change in 5-domain NPCCSS score, mean change” value ([2]; post hoc: excluding individuals with double functional null mutations)?
A: Its value is 0.47.

Q: And the “Expression of HSPA1A relative to PBS-treated control” value [3]?
A: The value was “time- and dose-dependent increase”.

Q: What about the Blood-brain barrier passage [4] of the same compound?
A: The Blood-brain barrier passage was “crosses the blood-brain barrier”.

Q: And the “Amount of EndoH-resistant (correctly processed) NPC1 relative to PBS-treated cells” value [5]?
A: Its value is “increased”.

Q: And the “Amount of total NPC1 protein relative to PBS-treated control” value (NPC1 protein)?
A: Its value is “increased”.

Q: And the “Amount of EndoH-resistant (correctly processed) NPC1 relative to PBS-treated cells” value [6]?
A: Its value is “increased”.

Q: What about the “Amount of EndoH-resistant (correctly processed) NPC1 relative to PBS-treated cells” value ([6]; listed as arimoclomol) of the same compound?
A: Its value is “increased; also recorded: clear increase of correctly matured NPC1 protein”.
